Reference: patent US20230357249A1, “ANDROGEN RECEPTOR PROTEIN DEGRADERS WITH A TRICYCLIC CEREBLON LIGAND” (THE REGENTS OF THE UNIVERSITY OF MICHIGAN, priority 2020, published 2023)

How the values were obtained:
AR protein [1] = assay: AR protein degradation in MDA-MB-453 cells, Western blotting; assay type: cell-based; design: key to AR protein degradation MDA-MB-453 10 nM: A: >90% degradation (24 hr treatment); B: >50% degradation but <90% (24 hr treatment); C: >10% degradation but <50% (24 hr treatment); D: No significant degradation (24 hr treatment); conditions: 24 hr treatment
Protocol: (§1) The appropriate cell line, e.g., prostate cancer LNCaP, Vcap, or 22RV1 cell line, was treated with Compounds of the Disclosure as indicated. The treated cells were lysed with RIPA buffer. The AR level in the cell lysates was examined by western blotting and a specific AR antibody (ab194196, Abcam, Cambridge, MA 02139) with concentration of 1:20,000. GAPDH was used as a loading control.
(§2) Bands were quantified with ImageJ software. The relative numbers of each band obtained from normalization with its corresponding GAPDH level were compared with Prism 8 software. The DC50 values were produced from Prism 8, and the DC90 values were calculated with an equation=Bottom + (Top-Bottom)/(1+10^((LogEC50-X)*HillSlope) based on DC50 and Hillslope values.
(§3) The amount of AR protein degradation in VCap and MDA-MB-453 cells caused by representative Compounds of the Disclosure at the concentrations indicated is presented in Table 4, FIG. 1, and FIG. 2.

AR protein [2] = target: T1, AR protein (Homo sapiens, UniProt P10275); assay: AR protein degradation in VCaP cells, Western blotting; assay type: cell-based; design: key to AR protein degradation VCap 10 nM / AR protein degradation VCap 100 nM: A: >90% degradation (24 hr treatment); B: >50% degradation but <90% (24 hr treatment); C: >10% degradation but <50% (24 hr treatment); D: No significant degradation (24 hr treatment); conditions: 24 hr treatment; for percent AR protein degradation at 0.1 µM / AR protein degradation VCap 100 nM: 100 nM; for AR protein degradation VCap 10 nM / percent AR protein degradation at 0.01 µM: 10 nM
T1 construct: endogenous in cells; host or cells: VCaP
T1 sequence (P10275 1-920): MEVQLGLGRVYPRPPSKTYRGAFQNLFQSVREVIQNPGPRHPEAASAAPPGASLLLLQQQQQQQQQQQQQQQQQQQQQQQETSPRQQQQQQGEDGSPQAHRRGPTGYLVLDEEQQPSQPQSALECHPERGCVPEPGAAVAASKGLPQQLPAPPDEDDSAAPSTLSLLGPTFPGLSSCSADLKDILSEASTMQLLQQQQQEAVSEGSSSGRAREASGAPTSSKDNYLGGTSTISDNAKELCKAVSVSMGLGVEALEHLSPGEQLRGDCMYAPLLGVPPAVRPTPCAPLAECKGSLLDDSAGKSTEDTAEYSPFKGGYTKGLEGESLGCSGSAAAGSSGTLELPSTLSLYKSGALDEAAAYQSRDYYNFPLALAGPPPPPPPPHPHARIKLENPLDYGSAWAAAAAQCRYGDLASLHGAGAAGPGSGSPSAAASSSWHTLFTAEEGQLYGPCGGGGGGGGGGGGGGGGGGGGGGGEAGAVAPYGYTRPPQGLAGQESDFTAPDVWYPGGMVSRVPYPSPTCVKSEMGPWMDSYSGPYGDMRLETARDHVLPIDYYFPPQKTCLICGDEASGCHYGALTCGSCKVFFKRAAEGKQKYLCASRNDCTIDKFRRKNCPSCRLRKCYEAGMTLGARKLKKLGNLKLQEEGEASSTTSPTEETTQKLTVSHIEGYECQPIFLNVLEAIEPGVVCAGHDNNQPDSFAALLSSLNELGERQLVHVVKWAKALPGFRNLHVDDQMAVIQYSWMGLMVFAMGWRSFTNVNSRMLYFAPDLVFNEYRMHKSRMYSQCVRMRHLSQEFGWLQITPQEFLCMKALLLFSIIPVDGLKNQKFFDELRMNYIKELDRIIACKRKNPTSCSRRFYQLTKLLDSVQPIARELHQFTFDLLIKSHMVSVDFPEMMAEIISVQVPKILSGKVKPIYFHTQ
Protocol: as §1, §2, §3

Row | SMILES | percent AR protein degradation at 0.1 µM (AR protein [2]) | percent AR protein degradation at 0.01 µM (AR protein [2]) | also measured
1 | N#Cc1ccc(O[C@H]2CC[C@H](N3Cc4cc(N5CCN(CC(=O)N6Cc7cc8c(cc7C6)C(=O)N(C6CCC(=O)NC6=O)C8=O)CC5)ccc4C3=O)CC2)cc1Cl (some centres unmarked) [compound 4] |  |  | AR protein degradation MDA-MB-453 10 nM (AR protein [1]): B (>50% degradation but <90% (24 hr treatment)); AR protein degradation MDA-MB-453 100 nM (AR protein [1]): A (>90% degradation (24 hr treatment))
2 | N#Cc1ccc(O[C@H]2CC[C@H](N3Cc4cc(C(=O)N5CCC(CN6Cc7cc8c(cc7C6)C(=O)N(C6CCC(=O)NC6=O)C8=O)CC5)ccc4C3=O)CC2)cc1Cl (some centres unmarked) [compound 174] | > 90% |  | AR protein degradation VCap 10 nM (AR protein [2]): D
3 | C[C@H]1C[C@@H](NC(=O)c2ccc(N3CCC(N4Cc5cc6c(cc5C4)C(=O)N(C4CCC(=O)NC4=O)C6=O)CC3)cc2)CC[C@@H]1Oc1ccc(C#N)c(Cl)c1 (some centres unmarked) [compound 16] | > 90% | > 90% | 
4 | CN(c1ccc(C#N)c(Cl)c1)[C@H]1CC[C@H](NC(=O)c2ccc(C3CCN(CC(=O)N4Cc5cc6c(cc5C4)C(=O)N(C4CCC(=O)NC4=O)C6)CC3)cc2)CC1 (some centres unmarked) [compound 328, N-((1r,4r)-4-((3-Chloro-4-Cyanophenyl)(Methyl)Amino)Cyclohexyl)-4-(1-(2-(6-(2,6-Dioxopiperidin-3-Yl)-5-Oxo-3,5,6,7-Tetrahydropyrrolo[3,4-F]Isoindol-2(1h)-Yl)-2-Oxoethyl)Piperidin-4-Yl)Benzamide] | > 90% | > 90% | 
5 | N#Cc1ccc(O[C@H]2CC[C@H](NC(=O)c3ccc(N4CCC(CN5Cc6cc7c(cc6C5)C(=O)N(C5CCC(=O)NC5=O)C7=O)CC4)cc3)CC2)cc1Cl (some centres unmarked) [compound 8, N-((1r,4r)-4-(3-chloro-4-cyanophenoxy)cyclohexyl)-4-(4-((6-(2,6-dioxopiperidin-3-yl)-5,7-dioxo-3,5,6,7-tetrahydropyrrolo[3,4-f]isoindol-2(1H)-yl)methyl)piperidin-1-yl)benzamide] | > 90% | > 90% | 
6 | CC1(C)[C@H](Oc2ccc(C#N)c(Cl)c2)C(C)(C)[C@H]1N1Cc2cc(N3CCN(CC(=O)N4CCc5cc6c(cc5C4)C(=O)N(C4CCC(=O)NC4=O)C6=O)CC3)ccc2C1=O (some centres unmarked) [compound 1] |  |  | AR protein degradation MDA-MB-453 10 nM (AR protein [1]): D; AR protein degradation MDA-MB-453 100 nM (AR protein [1]): C (>10% degradation but <50% (24 hr treatment))
7 | N#Cc1ccc(O[C@H]2CC[C@H](NC(=O)c3ccc(N4CC(CN5Cc6cc7c(cc6C5)C(=O)N(C5CCC(=O)NC5=O)C7=O)C4)cc3)CC2)cc1Cl (some centres unmarked) [compound 21] | > 90% | 50 to 90% | 
8 | C[C@@H]1CCN(C(=O)c2ccc(N3CCC(CN4Cc5cc6c(cc5C4)C(=O)N(C4CCC(=O)NC4=O)C6=O)CC3)cc2)C[C@H]1Oc1ccc(C#N)c(Cl)c1 (some centres unmarked) [compound 121] |  |  | AR protein degradation VCap 10 nM (AR protein [2]): D; AR protein degradation VCap 100 nM (AR protein [2]): D
9 | CN(c1ccc(C#N)c(Cl)c1)[C@H]1CC[C@H](NC(=O)c2ccc(N3CC(CN4Cc5cc6c(cc5C4)C(=O)N(C4CCC(=O)NC4=O)C6=O)C3)cc2)CC1 (some centres unmarked) [compound 23] | > 90% | > 90% | 
10 | C[C@H]1CCN(c2ccc(C(=O)N3CCC(N4Cc5cc6c(cc5C4)C(=O)N(C4CCC(=O)NC4=O)C6=O)CC3)cc2)CCN1c1ccc(C#N)c(Cl)c1 (some centres unmarked) [compound 119] | 50 to 90% | 50 to 90% | 
11 | N#Cc1ccc(O[C@H]2CC[C@H](N3Cc4cc(N5CCN(CC(=O)N6CCc7cc8c(cc7C6)C(=O)N(C6CCC(=O)NC6=O)C8=O)CC5)ccc4C3=O)CC2)cc1Cl (some centres unmarked) [compound 3] |  |  | AR protein degradation MDA-MB-453 10 nM (AR protein [1]): D; AR protein degradation MDA-MB-453 100 nM (AR protein [1]): C (>10% degradation but <50% (24 hr treatment))
12 | C[C@H]1CCN(c2ccc(C(=O)N3CCC(CN4Cc5cc6c(cc5C4)C(=O)N(C4CCC(=O)NC4=O)C6=O)CC3)cc2)CCN1c1ccc(C#N)c(Cl)c1 (some centres unmarked) [compound 120] | 50 to 90% | 50 to 90% | 
13 | N#Cc1ccc(OC2CC3(CCC(NC(=O)c4ccc(N5CCC(CN6Cc7cc8c(cc7C6)C(=O)N(C6CCC(=O)NC6=O)C8=O)CC5)cc4)CC3)C2)cc1Cl (centres unmarked) [compound 126] | 10 to 50% |  | AR protein degradation VCap 10 nM (AR protein [2]): D
14 | N#Cc1ccc(OC2CC3(CC(NC(=O)c4ccc(N5CCC(CN6Cc7cc8c(cc7C6)C(=O)N(C6CCC(=O)NC6=O)C8=O)CC5)cc4)C3)C2)cc1Cl (centres unmarked) [compound 124] | 50 to 90% |  | AR protein degradation VCap 10 nM (AR protein [2]): D
15 | CC1(C)[C@H](Oc2ccc(C#N)c(Cl)c2)C(C)(C)[C@H]1N1Cc2cc(C(=O)N3CCC(CN4Cc5cc6c(cc5C4)C(=O)N(C4CCC(=O)NC4=O)C6=O)CC3)ccc2C1=O (some centres unmarked) [compound 6] | 10 to 50% | 10 to 50% | 
16 | N#Cc1ccc(OC2CCN(C(=O)Nc3ccc(C(=O)N4CCC(CN5Cc6cc7c(cc6C5)C(=O)N(C5CCC(=O)NC5=O)C7=O)CC4)cc3)CC2)cc1Cl (centres unmarked) [compound 132] |  |  | AR protein degradation VCap 10 nM (AR protein [2]): D; AR protein degradation VCap 100 nM (AR protein [2]): D
17 | CN(c1ccc(C#N)c(Cl)c1)[C@H]1CC[C@H](NC(=O)c2ccc([C@H]3CC[C@H](CN4Cc5cc6c(cc5C4)C(=O)N(C4CCC(=O)NC4=O)C6=O)CC3)cn2)CC1 (some centres unmarked) [compound 313] | > 90% | > 90% | 
18 | CN(c1ccc(C#N)c(Cl)c1)C1CCC(NC(=O)c2ccc(N3CCC(N4Cc5cc6c(cc5C4)C(=O)N(C4CCC(=O)NC4=O)C6=O)CC3)cc2)CC1 (centres unmarked) [compound 19, N-((1r,4r)-4-((3-chloro-4-cyanophenyl)(methyl)amino)cyclohexyl)-4-(4-(6-(2,6-dioxopiperidin-3-yl)-5,7-dioxo-3,5,6,7-tetrahydropyrrolo [3,4-f]isoindol-2(1H)-yl)piperidin-1-yl)benzamide] | > 90% | > 90% | 
19 | N#Cc1ccc(O[C@H]2CC[C@H](NC(=O)c3ccc4c(c3)CCN(CC(=O)N3CCc5cc6c(cc5C3)C(=O)N(C3CCC(=O)NC3=O)C6=O)CC4)CC2)cc1Cl (some centres unmarked) [compound 29] | > 90% | 50 to 90% | 
20 | CN(c1ccc(C#N)c(Cl)c1)[C@H]1CC[C@H](NC(=O)c2ccc(N3CCC(CN4Cc5cc6c(cc5C4)C(=O)N(C4CCC(=O)NC4=O)C6=O)CC3)cn2)CC1 (some centres unmarked) [compound 324] | > 90% | > 90% | 
21 | CN(c1ccc(C#N)c(Cl)c1)[C@H]1CC[C@H](NC(=O)c2ccc(N3CCC(CN4Cc5cc6c(cc5C4)C(=O)N(C4CCC(=O)NC4=O)C6=O)CC3)nc2)CC1 (some centres unmarked) [compound 323] | > 90% | > 90% | 
22 | N#Cc1ccc(OC2CCN(C(=O)Oc3ccc(C(=O)N4CCC(CN5Cc6cc7c(cc6C5)C(=O)N(C5CCC(=O)NC5=O)C7=O)CC4)cc3)CC2)cc1Cl (centres unmarked) [compound 131] | 10 to 50% |  | AR protein degradation VCap 10 nM (AR protein [2]): D
23 | CN(c1ccc(C#N)c(Cl)c1)[C@H]1CC[C@H](NC(=O)c2ccc([C@H]3CC[C@H](CN4Cc5cc6c(cc5C4)C(=O)N(C4CCC(=O)CC4=O)C6=O)CC3)cc2)CC1 (some centres unmarked) [compound 280] | > 90% | > 90% | 
24 | CC1(C)[C@H](Oc2ccc(C#N)c(Cl)c2)C(C)(C)[C@H]1N1Cc2cc(C(=O)N3CCC(CCN4Cc5cc6c(cc5C4)C(=O)N(C4CCC(=O)NC4=O)C6=O)CC3)ccc2C1=O (some centres unmarked) [compound 7] | > 90% | 50 to 90% | 
25 | C[C@@H]1CN(C(=O)c2ccc(N3CCC(CN4Cc5cc6c(cc5C4)C(=O)N(C4CCC(=O)NC4=O)C6=O)CC3)cc2)C[C@H]1Oc1ccc(C#N)c(Cl)c1 (some centres unmarked) [compound 122] |  |  | AR protein degradation VCap 10 nM (AR protein [2]): D; AR protein degradation VCap 100 nM (AR protein [2]): D
